Source: patent publication US20130165641A1, “6,11-BRIDGED BIARYL MACROLIDES” (Enanta Pharmaceuticals, Inc., priority 2007, published 2013)
≈ marks a conversion by molar mass, not a printed value.

Tested on: MRSA
Assay: MIC by micro-dilution method, MRSA isolates
Assay type: cell-based, Staphylococcus aureus
Details: compounds of Formula XVI; for MIC MRSA 7662: MRSA isolate 7662; for MIC MRSA 33591: MRSA isolate 33591
Protocol: Susceptibility tests can be used to quantitatively measure the in vitro activity of an antimicrobial agent against a given bacterial isolate. Compounds are tested for in vitro antibacterial activity by a micro-dilution method. Minimal Inhibitory Concentration (MIC) is determined in 96 well microtiter plates utilizing the appropriate broth medium for the observed bacterial isolates. […] The diluted compounds (2 μl/well) are then transferred into sterile, uninoculated medium (0.2 mL) by use of a 96 fixed tip-pipetting station. The inoculum for each bacterial strain is standardized to approximately 5×10^5 CFU/mL by optical comparison to a 0.5 McFarland turbidity standard. The plates are inoculated with 10 μl/well of adjusted bacterial inoculum. The 96 well plates are covered and incubated at 35+/−2° C. for 24 hours in ambient air environment. Following incubation, plate wells are visually examined by Optical Density measurement for the presence of growth (turbidity). The lowest concentration of an antimicrobial agent at which no visible growth occurs is defined as the MIC.
All in vitro testing follows the guidelines described in the Approved Standards M7-A7 protocol, published by the Clinical Laboratory Standards Institute (CLSI).

| MIC MRSA 7662 [µg/mL] | MIC MRSA 33591 [µg/mL] | Structure (SMILES) |
| --- | --- | --- |
| 2 (≈ 2.18 µM) | 2 (≈ 2.18 µM) | CC[C@H]1OC(=O)[C@@](C)(F)C(=O)[C@H](C)[C@@H](O[C@@H]2O[C@H](C)C[C@H](N(C)C)[C@H]2O)[C@@]2(C)C[C@@H](C)C(=NC(=O)C(C)C)[C@H](C)[C@@H](OC/C(=N\OCc3ncc(-c4cccc(N)n4)s3)CO2)[C@]1(C)O [Example 111] |
| 4 (≈ 4.36 µM) | 8 (≈ 8.72 µM) | CC[C@H]1OC(=O)[C@@](C)(F)C(=O)[C@H](C)[C@@H](O[C@@H]2O[C@H](C)C[C@H](N(C)C)[C@H]2O)[C@@]2(C)C[C@@H](C)C(=NC(=O)C3CC3)[C@H](C)[C@@H](OC/C(=N\OCc3ncc(-c4cccc(N)n4)s3)CO2)[C@]1(C)O [Example 112] |
| 8 (≈ 8.98 µM) | 8 (≈ 8.98 µM) | CCC1OC(=O)C(C)(F)C(=O)C(C)C(OC2OC(C)CC(N(C)C)C2O)C2(C)CC(C)C(=NC(C)=O)C(C)C(OCC(=NOCc3cnc(-c4cccc(N)n4)s3)CO2)C1(C)O (stereo not shown) [Example 97] |
| 8 (≈ 9.03 µM) | 8 (≈ 9.03 µM) | CCC(=O)N=C1[C@H](C)C[C@@]2(C)OC/C(=N/OCc3ccc(-c4nc(N)cs4)cc3)CO[C@H]([C@H]1C)[C@](C)(O)[C@@H](CC)OC(=O)[C@H](C)C(=O)[C@H](C)[C@H]2O[C@@H]1O[C@H](C)C[C@H](N(C)C)[C@H]1O [Example 121] |
| 4 (≈ 4.42 µM) | 4 (≈ 4.42 µM) | CCC(=O)N=C1[C@H](C)C[C@@]2(C)OC/C(=N/OCc3ccc(-c4nc(N)cs4)cc3)CO[C@H]([C@H]1C)[C@](C)(O)[C@@H](CC)OC(=O)[C@@](C)(F)C(=O)[C@H](C)[C@H]2O[C@@H]1O[C@H](C)C[C@H](N(C)C)[C@H]1O [Example 120] |
| 2 (≈ 2.18 µM) | 2 (≈ 2.18 µM) | CC[C@H]1OC(=O)[C@@](C)(F)C(=O)[C@H](C)[C@@H](O[C@@H]2O[C@H](C)C[C@H](N(C)C)[C@H]2O)[C@@]2(C)C[C@@H](C)C(=NC(=O)C(C)C)[C@H](C)[C@@H](OC/C(=N\OCc3ccc(-c4nc(N)cs4)cn3)CO2)[C@]1(C)O [Example 109] |
| 8 (≈ 8.78 µM) | 8 (≈ 8.78 µM) | CCC1OC(=O)C(C)(F)C(=O)C(C)C(OC2OC(C)CC(N(C)C)C2O)C2(C)CC(C)C(=NC(=O)C3CC3)C(C)C(OCC(=NOCc3ccc(-c4cccc(N)n4)cn3)CO2)C1(C)O (stereo not shown) [Example 77] |
| 4.00 (≈ 4.5 µM) | 8.00 (≈ 9 µM) | CCC(=O)N=C1[C@H](C)C[C@@]2(C)OC/C(=N/OCc3ncc(-c4cccc(N)n4)o3)CO[C@H]([C@H]1C)[C@](C)(O)[C@@H](CC)OC(=O)[C@@](C)(F)C(=O)[C@H](C)[C@H]2O[C@@H]1O[C@H](C)C[C@H](N(C)C)[C@H]1O [Example 134] |
| 4 (≈ 4.57 µM) | 8 (≈ 9.14 µM) | CC[C@H]1OC(=O)[C@@](C)(F)C(=O)[C@H](C)[C@@H](O[C@@H]2O[C@H](C)C[C@H](N(C)C)[C@H]2O)[C@@]2(C)C[C@@H](C)C(=NC(C)=O)[C@H](C)[C@@H](OC/C(=N\OCc3coc(-c4cccc(N)n4)n3)CO2)[C@]1(C)O [Example 126] |
| 4.00 (≈ 4.42 µM) | 4.00 (≈ 4.42 µM) | CCC(=O)N=C1[C@H](C)C[C@@]2(C)OC/C(=N/OCc3ccc(-c4csc(N)n4)cc3)CO[C@H]([C@H]1C)[C@](C)(O)[C@@H](CC)OC(=O)[C@@](C)(F)C(=O)[C@H](C)[C@H]2O[C@@H]1O[C@H](C)C[C@H](N(C)C)[C@H]1O [Example 122] |
| 4 (≈ 4.41 µM) | 4 (≈ 4.41 µM) | CCC1OC(=O)C(C)(F)C(=O)C(C)C(OC2OC(C)CC(N(C)C)C2O)C2(C)CC(C)C(=NC(C)=O)C(C)C(OCC(=NOCc3ccc(-n4ccc(N)n4)cc3Cl)CO2)C1(C)O (stereo not shown) [Example 89] |
| 4 (≈ 4.28 µM) | 4 (≈ 4.28 µM) | CC[C@H]1OC(=O)[C@@](C)(F)C(=O)[C@H](C)[C@@H](O[C@@H]2O[C@H](C)C[C@H](N(C)C)[C@H]2O)[C@@]2(C)C[C@@H](C)C(=NC(=O)C(C)C)[C@H](C)[C@@H](OC/C(=N\OCc3ccc(-n4ccc(N)n4)cc3Cl)CO2)[C@]1(C)O [Example 116] |
| 8 (≈ 8.89 µM) | 8 (≈ 8.89 µM) | CCC1OC(=O)C(C)(F)C(=O)C(C)C(OC2OC(C)CC(N(C)C)C2O)C2(C)CC(C)C(=NC(=O)C3CC3)C(C)C(OCC(=NOCc3ccc(-n4ccc(N)n4)cn3)CO2)C1(C)O (stereo not shown) [Example 94] |
| 2 (≈ 2.21 µM) | 2 (≈ 2.21 µM) | CCC(=O)N=C1[C@H](C)C[C@@]2(C)OC/C(=N/OCc3ncc(-c4cccc(N)n4)s3)CO[C@H]([C@H]1C)[C@](C)(O)[C@@H](CC)OC(=O)[C@@](C)(F)C(=O)[C@H](C)[C@H]2O[C@@H]1O[C@H](C)C[C@H](N(C)C)[C@H]1O [Example 110] |
| 8 (≈ 8.9 µM) | 8 (≈ 8.9 µM) | CCC1OC(=O)C(C)(F)C(=O)C(C)C(OC2OC(C)CC(N(C)C)C2O)C2(C)CC(C)C(=NC(=O)C3CC3)C(C)C(OCC(=NOCc3ccc(-n4ccc(N)n4)cc3)CO2)C1(C)O (stereo not shown) [Example 93] |
| 1.00 (≈ 1.09 µM) | 2.00 (≈ 2.18 µM) | CC[C@H]1OC(=O)[C@@](C)(F)C(=O)[C@H](C)[C@@H](O[C@@H]2O[C@H](C)C[C@H](N(C)C)[C@H]2O)[C@@]2(C)C[C@@H](C)C(=NC(=O)C(C)C)[C@H](C)[C@@H](OC/C(=N\OCc3csc(-c4cccc(N)n4)n3)CO2)[C@]1(C)O [Example 137] |
| 4 (≈ 4.43 µM) | 4 (≈ 4.43 µM) | CCC1OC(=O)C(C)(F)C(=O)C(C)C(OC2OC(C)CC(N(C)C)C2O)C2(C)CC(C)C(=NC(=O)C(C)C)C(C)C(OCC(=NOCc3ccc(-n4ccc(N)n4)nc3)CO2)C1(C)O (stereo not shown) [Example 86] |
| 8 (≈ 9.15 µM) | 8 (≈ 9.15 µM) | CCC1OC(=O)C(C)(F)C(=O)C(C)C(OC2OC(C)CC(N(C)C)C2O)C2(C)CC(C)C(=NC(C)=O)C(C)C(OCC(=NOCc3ccc(-n4ccc(N)n4)nc3)CO2)C1(C)O (stereo not shown) [Example 78] |
| 4.00 (≈ 4.41 µM) | 8.00 (≈ 8.83 µM) | CCC(=O)N=C1[C@H](C)C[C@@]2(C)OC/C(=N/OCc3ccc(-c4nsc(N)n4)nc3)CO[C@H]([C@H]1C)[C@](C)(O)[C@@H](CC)OC(=O)[C@@](C)(F)C(=O)[C@H](C)[C@H]2O[C@@H]1O[C@H](C)C[C@H](N(C)C)[C@H]1O [Example 129] |
| 2.00 (≈ 2.21 µM) | 4.00 (≈ 4.41 µM) | CCC(=O)N=C1[C@H](C)C[C@@]2(C)OC/C(=N/OCc3ncc(-c4nc(N)cs4)cn3)CO[C@H]([C@H]1C)[C@](C)(O)[C@@H](CC)OC(=O)[C@@](C)(F)C(=O)[C@H](C)[C@H]2O[C@@H]1O[C@H](C)C[C@H](N(C)C)[C@H]1O [Example 132] |
| 4 (≈ 4.38 µM) | 4 (≈ 4.38 µM) | CCC1OC(=O)C(C)(F)C(=O)C(C)C(OC2OC(C)CC(N(C)C)C2O)C2(C)CC(C)C(=NC(=O)C(C)C)C(C)C(OCC(=NOCc3ccc(-c4cccc(N)n4)cn3)CO2)C1(C)O (stereo not shown) [Example 80] |
| 8 (≈ 9.04 µM) | 8 (≈ 9.04 µM) | CC[C@H]1OC(=O)[C@@](C)(F)C(=O)[C@H](C)[C@@H](O[C@@H]2O[C@H](C)C[C@H](N(C)C)[C@H]2O)[C@@]2(C)C[C@@H](C)C(=NC(C)=O)[C@H](C)[C@@H](OC/C(=N\OCc3ccc(-c4nccc(N)n4)cc3)CO2)[C@]1(C)O [Example 105] |
| 8 (≈ 9.03 µM) | 8 (≈ 9.03 µM) | CC[C@H]1OC(=O)[C@@](C)(F)C(=O)[C@H](C)[C@@H](O[C@@H]2O[C@H](C)C[C@H](N(C)C)[C@H]2O)[C@@]2(C)C[C@@H](C)C(=NC(C)=O)[C@H](C)[C@@H](OC/C(=N\OCc3ccc(-c4nccc(N)n4)cn3)CO2)[C@]1(C)O [Example 102] |
| 8 (≈ 9.16 µM) | 8 (≈ 9.16 µM) | CC[C@H]1OC(=O)[C@H](C)C(=O)[C@H](C)[C@@H](O[C@@H]2O[C@H](C)C[C@H](N(C)C)[C@H]2O)[C@@]2(C)C[C@@H](C)C(=NC(C)=O)[C@H](C)[C@@H](OC/C(=N\OCc3ccc(-c4nc(N)cs4)cn3)CO2)[C@]1(C)O [Example 108] |
| 8 (≈ 8.88 µM) | 8 (≈ 8.88 µM) | CCC1OC(=O)C(C)C(=O)C(C)C(OC2OC(C)CC(N(C)C)C2O)C2(C)CC(C)C(=NC(=O)C(C)C)C(C)C(OCC(=NOCc3ccc(-n4ccc(N)n4)cc3F)CO2)C1(C)O (stereo not shown) [Example 98] |
| 4 (≈ 4.43 µM) | 8 (≈ 8.86 µM) | CC[C@H]1OC(=O)[C@@](C)(F)C(=O)[C@H](C)[C@@H](O[C@@H]2O[C@H](C)C[C@H](N(C)C)[C@H]2O)[C@@]2(C)C[C@@H](C)C(=NC(=O)C(C)C)[C@H](C)[C@@H](OC/C(=N\OCc3coc(-c4cccc(N)n4)n3)CO2)[C@]1(C)O [Example 118] |
| 8 (≈ 8.98 µM) | 8 (≈ 8.98 µM) | CC[C@H]1OC(=O)[C@@](C)(F)C(=O)[C@H](C)[C@@H](O[C@@H]2O[C@H](C)C[C@H](N(C)C)[C@H]2O)[C@@]2(C)C[C@@H](C)C(=NC(C)=O)[C@H](C)[C@@H](OC/C(=N\OCc3ccc(-c4csc(N)n4)cn3)CO2)[C@]1(C)O [Example 104] |
| 2 (≈ 2.25 µM) | 4 (≈ 4.5 µM) | CCC(=O)N=C1C(C)CC2(C)OCC(=NOCc3ccc(-n4ccc(N)n4)cn3)COC(C1C)C(C)(O)C(CC)OC(=O)C(C)(F)C(=O)C(C)C2OC1OC(C)CC(N(C)C)C1O (stereo not shown) [Example 92] |
| 4.00 (≈ 4.41 µM) | 8.00 (≈ 8.83 µM) | CCC(=O)N=C1[C@H](C)C[C@@]2(C)OC/C(=N/OCc3cnc(-c4nccc(N)n4)s3)CO[C@H]([C@H]1C)[C@](C)(O)[C@@H](CC)OC(=O)[C@@](C)(F)C(=O)[C@H](C)[C@H]2O[C@@H]1O[C@H](C)C[C@H](N(C)C)[C@H]1O [Example 131] |
